In US11780845B2 (Relay Therapeutics, Inc., priority 2019, dated 2023):

What was measured:
SNU-16 = assay: Cell SNU-16 assay; type: cell-based
FGFR2 = FGFR2 (Homo sapiens (Human), UniProt P21802); assay: Biochemical FGFR2 Caliper assay
[1] = Homo sapiens, SNU-16, SNU-16 cells

Sequence of FGFR2 (P21802 22-821): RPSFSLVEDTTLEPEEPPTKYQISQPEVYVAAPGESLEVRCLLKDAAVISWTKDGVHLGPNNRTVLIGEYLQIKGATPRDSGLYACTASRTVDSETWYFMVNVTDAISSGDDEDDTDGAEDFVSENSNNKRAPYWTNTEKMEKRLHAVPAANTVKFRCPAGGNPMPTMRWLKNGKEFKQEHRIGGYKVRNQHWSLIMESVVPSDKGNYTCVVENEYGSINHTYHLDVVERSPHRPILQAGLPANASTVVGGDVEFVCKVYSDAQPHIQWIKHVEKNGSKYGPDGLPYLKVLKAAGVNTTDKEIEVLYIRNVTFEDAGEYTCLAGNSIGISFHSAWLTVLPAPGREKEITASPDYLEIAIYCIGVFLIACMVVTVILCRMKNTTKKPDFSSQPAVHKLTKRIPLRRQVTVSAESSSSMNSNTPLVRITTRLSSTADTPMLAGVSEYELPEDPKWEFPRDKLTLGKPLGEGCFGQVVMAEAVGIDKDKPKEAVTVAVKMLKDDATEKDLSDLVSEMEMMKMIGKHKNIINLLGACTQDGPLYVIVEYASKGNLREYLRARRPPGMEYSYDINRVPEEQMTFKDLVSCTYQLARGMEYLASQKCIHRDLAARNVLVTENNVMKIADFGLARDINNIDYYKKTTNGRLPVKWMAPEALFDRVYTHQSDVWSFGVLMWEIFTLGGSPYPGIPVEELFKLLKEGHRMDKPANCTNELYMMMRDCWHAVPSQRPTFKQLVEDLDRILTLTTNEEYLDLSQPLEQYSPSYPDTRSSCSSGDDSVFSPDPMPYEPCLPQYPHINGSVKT

Row | Compound | IC50 (SNU-16; [1]) [nM] | IC50 (FGFR2) [nM] | IC50 (SNU-16; SNU-16 cells) [nM]
1 | C=C(C)C(=O)Nc1ccc(-c2[nH]c3ncnc(N)c3c2-c2ccc(S(=O)(=O)C3CCCC3)cc2)cc1 [Example 818] | 250 to 1000 | 250 to 1000 | 
2 | C=CC(=O)N1CC(c2c(-c3ccc(Oc4cccc(C)n4)cc3)c3c(N)ncnc3n2C)C[C@@H]1CO (stereo partly drawn) [Example 819] | 250 to 1000 | 250 to 1000 | 
3 | C=C(C)C(=O)Nc1ccc(-c2c(-c3ccc(Oc4cccc(C)n4)cc3)c3ncncc3n2C)cc1 [Example 820] | ≤ 100 | < 100 | 
4 | C=C(C)C(=O)Nc1ccc(-c2cn3ncnc(N)c3c2-c2ccc(C(=O)N3CCCCC3)cc2)cc1 [Example 821] | 1000 to 100000 | 1000 to 100000 | 
5 | C=CC(=O)Nc1ccc(-c2[nH]c3ncnc(N)c3c2-c2ccc(Oc3ccn(C)n3)cc2)cc1 [Example 822] | 250 to 1000 | 250 to 1000 | 
6 | C=C(C)C(=O)Nc1ccc(-c2cn3ncnc(N)c3c2-c2ccc(C(=O)NCC(F)(F)F)cc2)cc1 [Example 823] | 250 to 1000 | 100 to 250 | 
7 | C=C(C)C(=O)Nc1ccc(-c2c(-c3ccc(Oc4cccc(C)n4)cc3)c3c(N)ncnn3c2C#N)cc1 [Example 824] | 250 to 1000 | 100 to 250 | 
8 | C=C(C)C(=O)Nc1ccc(-c2cn3ncnc(N)c3c2-c2ccc(C(=O)N3CCCC3)cc2)cc1 [Example 825] | ≤ 100 | 100 to 250 | 
9 | C=C(C)C(=O)Nc1ccc(-c2cn3ncnc(N)c3c2-c2ccc(S(=O)(=O)N3CCCC3)cc2)cc1 [Example 826] | 250 to 1000 | 250 to 1000 | 
10 | C=C(C)C(=O)Nc1ccc(-c2cn3ncnc(N)c3c2-c2ccc(Oc3ncc(F)cn3)c(F)c2)cc1 [Example 827] | 1000 to 100000 | 1000 to 100000 | 
11 | C=CC(=O)N1CCC(c2cn3ncnc(N)c3c2-c2ccc(Oc3cccc(C)n3)cc2)C1 (stereo not drawn) [Example 828] | 250 to 1000 | 1000 to 100000 | 
12 | C=CC(=O)Nc1ccc(-c2cn3ncnc(N)c3c2-c2ccc(Oc3cccc(C)n3)cc2)cc1 [Example 829] | ≤ 100 | < 100 | 
13 | C=C(C)C(=O)Nc1ccc(-c2cn3ncnc(N)c3c2-c2ccc(C(=O)NC3CCC3)cc2)cc1 [Example 830] | ≤ 100 | < 100 | 
14 | C=C(C)C(=O)Nc1ccc(-c2[nH]c3cncnc3c2-c2ccc(Oc3cccc(C)n3)cc2)cc1 [Example 831] | 100 to 250 | < 100 | 
15 | C=C(C)C(=O)Nc1ccc(-c2c(-c3ccc(C(=O)NCC(F)(F)F)cc3)c3c(N)ncnn3c2CO)cc1 [Example 832] | 1000 to 100000 | 1000 to 100000 | 
16 | C=CC(=O)N1CCC(O)(c2c(-c3ccc(Oc4cccc(C)n4)cc3)c3c(N)ncnc3n2C)C1 (stereo not drawn) [Example 833] | 250 to 1000 | 100 to 250 | 
17 | C=C(C)C(=O)Nc1ccc(-c2cn3ncnc(N)c3c2-c2ccc(S(=O)(=O)NC3CCC3)cc2)cc1 [Example 834] | 250 to 1000 | 250 to 1000 | 
18 | C=CC(=O)Nc1ccc(-c2c(-c3ccc(Oc4cccc(C)n4)cc3)c3c(N)ncnn3c2CO)cc1 [Example 835] | 1000 to 100000 | 1000 to 100000 | 
19 | C=C(C)C(=O)Nc1ccc(-c2c(-c3ccc(Oc4cccc(C)n4)cc3)c3c(N)ncnn3c2C)cc1 [Example 836] | ≤ 100 | < 100 | 
20 | C=CC(=O)Nc1ccc(-c2cn3ncnc(N)c3c2-c2ccc(C(=O)N3CCCCC3)cc2)cc1 [Example 837] | ≤ 100 | < 100 | 
21 | C=CC(=O)Nc1ccc(-c2cn3ncnc(N)c3c2-c2ccc(C(=O)NCC(F)(F)F)cc2)cc1 [Example 838] | ≤ 100 | < 100 | 
22 | C=CC(=O)N1CC(c2c(-c3ccc(Oc4cccc(C)n4)cc3)c3c(N)ncnc3n2C)C[C@@H]1C (stereo partly drawn) [Example 839] | ≤ 100 | < 100 | 
23 | C=C(C)C(=O)Nc1ccc(-c2cn3ncnc(N)c3c2-c2ccc(C(=O)N3CC4CC3C4)cc2)cc1 [Example 840] | ≤ 100 | < 100 | 
24 | C=C(C)C(=O)Nc1ccc(-c2cn3ncnc(N)c3c2-c2ccc(C(=O)NC3CCOC3)cc2)cc1 (stereo not drawn) [Example 841] | 250 to 1000 | 250 to 1000 | 
25 | C=C(C)C(=O)Nc1ccc(-c2cn3ncnc(N)c3c2-c2ccc(C(=O)NCC(C)(C)O)cc2)cc1 [Example 842] | 1000 to 100000 | 250 to 1000 | 
26 | C=C(C)C(=O)Nc1ccc(-c2cn3ncnc(N)c3c2C2=CCC(C(=O)N(C)C)CC2)cc1 (stereo not drawn) [Example 843] | 250 to 1000 | 250 to 1000 | 
27 | C=CC(=O)N1CCC(c2c(-c3ccc(Oc4cccc(C)n4)cc3)c3c(N)ncnc3n2C)C1(C)C (stereo not drawn) [Example 844] | 1000 to 100000 | 1000 to 100000 | 

Further lines, results first:

Row | IC50 (SNU-16; [1]) [nM] | IC50 (FGFR2) [nM] | IC50 (SNU-16; SNU-16 cells) [nM] | Compound
28 | 250 to 1000 | 250 to 1000 |  | C=CC(=O)N1CCC(n2cc(-c3c(-c4ccc(C(=O)NC5CCOC5)cc4)c4c(N)ncnc4n3C)cn2)CC1 (stereo not drawn) [Example 845]
29 | 1000 to 100000 | < 100 |  | C=C(C)C(=O)Nc1ccc(-c2c(-c3ccc(C(=O)N4CCCCC4)cc3)c3c(N)ncnn3c2CO)cc1 [Example 846]
30 | 250 to 1000 | 250 to 1000 |  | C=CC(=O)N1CC(c2c(-c3ccc(Oc4cccc(C)n4)cc3)c3c(N)ncnc3n2C)C[C@H]1C (stereo partly drawn) [Example 847]
31 | 100 to 250 | 100 to 250 |  | C=CC(=O)N1CCC(n2cc(-c3c(-c4ccc(C(=O)N5CC6CC5C6)cc4)c4c(N)ncnc4n3C)cn2)CC1 [Example 848]
32 | 250 to 1000 | 100 to 250 |  | C=CC(=O)N1CCC(n2cc(-c3c(-c4ccc(C(=O)N(C)Cc5nc(C)no5)cc4)c4c(N)ncnc4n3C)cn2)CC1 [Example 849]
33 | 1000 to 100000 | 1000 to 100000 |  | C=CC(=O)N1CCC(N)(c2c(-c3ccc(Oc4cccc(C)n4)cc3)c3c(N)ncnc3n2C)C1 (stereo not drawn) [Example 850]
34 | 1000 to 100000 | 1000 to 100000 |  | C=CC(=O)N1CCC(n2cc(-c3c(-c4ccc(C(=O)NCC(C)(C)OC)cc4)c4c(N)ncnc4n3C)cn2)CC1 [Example 851]
35 | 1000 to 100000 | 250 to 1000 |  | C=C(C)C(=O)Nc1ccc(-c2cn3ncnc(N)c3c2-c2ccc(C(=O)NCC(C)(C)OC)cc2)cc1 [Example 852]
36 | 100 to 250 | 250 to 1000 |  | C=C(C)C(=O)Nc1ccc(-c2c(-c3ccc(C(=O)c4cccc(C)n4)cc3)c3c(N)ncnn3c2COC)cc1 [Example 853]
37 | ≤ 100 | 100 to 250 |  | C=CC(=O)N1CCC(n2cc(-c3c(-c4ccc(C(=O)NCC(C)(C)O)cc4)c4c(N)ncnc4n3C)cn2)CC1 [Example 854]
38 | 1000 to 100000 | 250 to 1000 |  | C=CC(=O)N1CCC(n2cc(-c3c(-c4ccc(Oc5ccn(C)n5)cc4)c4c(N)ncnc4n3C)cn2)CC1 [Example 855]
39 | 250 to 1000 | 250 to 1000 |  | C=C(C)C(=O)Nc1ccc(-c2c(-c3ccc(Oc4cccc(C)n4)cc3)c3c(N)ncnn3c2CN(C)C)cc1 [Example 856]
40 | 1000 to 100000 | 1000 to 100000 |  | C=C(C)C(=O)Nc1ccc(-c2[nH]c3ncnc(N)c3c2-c2ccc(Oc3cccc(C)n3)cc2)nc1 [Example 857]
41 | ≤ 100 | < 100 |  | Cn1c(C2CCN(C#N)C2)c(-c2ccc(C(=O)N3CCCC3)cc2)c2c(N)ncnc21 (stereo not drawn) [Example 858]
42 | 1000 to 100000 | 1000 to 100000 |  | C=CS(=O)(=O)N1CCC(c2c(-c3ccc(C(=O)N4CCCC4)cc3)c3c(N)ncnc3n2C)C1 (stereo not drawn) [Example 859]
43 | 1000 to 100000 | 1000 to 100000 |  | C=C(C)C(=O)Nc1ccc(-c2nn3ccnc(N)c3c2-c2ccc(C(=O)N3CCCC3)cc2)cc1 [Example 862]
44 |  | 100 to 250 | 250 to 1000 | C=C(C)C(=O)Nc1cc(-c2c(-c3ccc(C(=O)N4CCCC4)cc3)c3c(N)ncnc3n2C)n(C)n1 [Example 865]

Row | IC50 (SNU-16; [1]) [nM] | IC50 (FGFR2) [nM] | IC50 (SNU-16; SNU-16 cells) [nM] | Compound
45 |  | < 100 | ≤ 100 | C=C(C)C(=O)Nc1cc(-c2c(-c3ccc(C(=O)N4CCCC4)cc3)c3c(N)ncnc3n2C)n(C)n1 [Example 866]
46 | 1000 to 100000 | 1000 to 100000 |  | C=C(C)C(=O)Nc1ccc(-c2nn3ccnc(N)c3c2C2=CCC(C(=O)N3CCCC3)CC2)cc1 (stereo not drawn) [Example 868]
47 |  | 1000 to 100000 | 100 to 250 | C=C(C)C(=O)Nc1ccc(-c2c(-c3ccc(C(=O)N4CCCC4)cc3)c3c(N)n[nH]c(=O)c3n2C)cc1 [Example 870]
48 | 250 to 1000 | 100 to 250 |  | C=Cc1ncc(-c2c(-c3ccc(Oc4nccc(C)n4)cc3)c3c(N)ncnc3n2C)cn1 [Example 877]
49 | ≤ 100 | 100 to 250 |  | C=C(C)C(=O)Nc1ccc(-c2c(-c3ccc(C(=O)N4CCCC4)cc3)c3c(N)nn(C)c(=O)c3n2C)cc1 [Example 878]
50 |  | 1000 to 100000 | 1000 to 100000 | C=C(C)C(=O)Nc1ccc(-c2c(-c3ccc(C(=O)N4CCCC4)cc3)c3c(N)n[nH]c(=O)c3n2C)cc1 [Example 879]
51 | 1000 to 100000 | 1000 to 100000 |  | C=C(C)C(=O)N[C@H]1C[C@H](c2c(-c3ccc(C(=O)N4CCCC4)cc3)c3c(N)ncnc3n2C)C1 [Example 880]
52 | 1000 to 100000 | 1000 to 100000 |  | Cn1c(-c2ccc(NC(=O)CC#N)cc2)c(-c2ccc(C(=O)N3CCCC3)cc2)c2c(N)ncnc21 [Example 881]
53 | 1000 to 100000 | 1000 to 100000 |  | C=C(C)C(=O)Nc1ccc(-c2c(C3=C(F)C[C@H](C(=O)N4CCCC4)CC3)c3c(N)ncnc3n2C)cc1 [Example 882]
54 |  | 1000 to 100000 | 1000 to 100000 | C=CC(=O)N1CC(c2c(-c3ccc(C(=O)c4nccc(C)n4)cc3F)c3c(N)ncnc3n2C)C[C@@H]1C (stereo partly drawn) [Example 885]
55 |  | 250 to 1000 | ≤ 100 | C=CC(=O)N1CC(c2c(-c3ccc(C(=O)c4nccc(C)n4)cc3F)c3c(N)ncnc3n2C)C[C@@H]1C (stereo partly drawn) [Example 886]
56 | 100 to 250 | 250 to 1000 |  | C=CC(=O)N1CC(c2c(C3=CC[C@H](C(=O)N4CCCC4)CC3)c3c(N)ncnc3n2C)C[C@@H]1C (stereo partly drawn) [Example 889]
57 | 1000 to 100000 | 1000 to 100000 |  | C=CC(=O)N1CC(c2c(C3=CC[C@@H](C(=O)N4CCCC4)CC3)c3c(N)ncnc3n2C)C[C@@H]1C (stereo partly drawn) [Example 890]
58 | 1000 to 100000 | 1000 to 100000 |  | C=Cc1nc2cc(-c3c(-c4ccc(C(=O)N5CCCC5)cc4)c4c(N)ncnc4n3C)ccc2n1C [Example 893]
59 | 1000 to 100000 | 1000 to 100000 |  | C=Cc1nc2ccc(-c3c(-c4ccc(C(=O)N5CCCC5)cc4)c4c(N)ncnc4n3C)cc2n1C [Example 895]
60 | ≤ 100 | 100 to 250 |  | Cc1ccnc(Oc2ccc(-c3c(-c4ccc(NC(=O)CCl)cc4)n(C)c4ncnc(N)c34)cc2)n1 [Example 897]
